Results from patent publication US20100069246A1, “Herbicide Combination Comprising Dimethoxytriazinyl-Substituted Difluoromethanesulfonylanilides” (BAYER CROPSCIENCE AG, priority 2008, published 2010).

Columns and labels:
Test in all cases: Post-emergence action, greenhouse pot test, visual scoring
Assay type in all cases: in vivo
[1] = test system: Fallopia (ex Polygonum) convolvulus (POLCO)
Experimental: (§1) Seeds or rhizome pieces of mono- and dicotyledonous harmful and useful plants were placed in peat pots (diameter 4 cm) filled with sandy loam and then covered with soil. The pots were kept in a greenhouse under optimum conditions. In addition, harmful plants encountered in paddy rice cultivation were cultivated in pots with a water level 2 cm above the soil surface.
(§2) About three weeks after the start of the cultivation, the test plants were treated at the 2- to 3-leaf stage. The herbicides, formulated as powder or liquid concentrates, were, either alone or in the combinations according to the invention, sprayed in various dosages on to the green parts of the plants using an application rate of 600 l of water/ha (converted). For further cultivation of the plants, the pots were then again kept under optimum conditions in a greenhouse.
(§3) The visual scoring of the herbicidal effects was carried out in intervals up to 21 days after the treatment. Scoring was carried out in percent in comparison to the untreated control plants. 0%=no herbicidal activity, 100%=complete herbicidal activity=complete kill.
(§4) The percentages from the treatments with the herbicides alone (=individual application) and with the combinations according to the invention (=mixtures) were employed to calculate interactions using the method of Colby. When the observed efficacies of the mixtures exceed the formal sum of the values of the tests with individual applications, they also exceed the expected value according to Colby, which is calculated using the formula below (cf. S. R. Colby; in Weeds 15 (1967) pp. 20 to 22):
(§5) Here: • A, B=activity of components A and B in percent at a dosage of a and b g of ai/ha (=gramm of active substance per hectare), respectively. • E=expected value in % at a dosage of a+b g of ai/ha.

[2] = test system: Triticum aestivum (TRZAS); conditions: 10 DAT
Experimental: as §1, §2, §3, §4, §5

[3] = test system: Matricaria inodora (MATIN)
Experimental: as §1, §2, §3, §4, §5

[4] = test system: Abuthilon theophrasti (ABUTH)
Experimental: as §1, §2, §3, §4, §5

Oryza sativa (ORYSA) = test system: Oryza sativa (ORYSA)
Experimental: as §1, §2, §3, §4, §5

[5] = test system: Pharbitis purpurea (PHBPU)
Experimental: as §1, §2, §3, §4, §5

[6] = test system: Alopecurus myosuroides (ALOMY)
Experimental: as §1, §2, §3, §4, §5

Zea mays (ZEAMX) = test system: Zea mays (ZEAMX)
Experimental: as §1, §2, §3, §4, §5

Setaria viridis (SETVI) = test system: Setaria viridis (SETVI)
Experimental: as §1, §2, §3, §4, §5

[7] = test system: Amaranthus retroflexus (AMARE)
Experimental: as §1, §2, §3, §4, §5

[8] = test system: Echinochloa crus-galli (ECHCG); conditions: 21 DAT
Experimental: as §1, §2, §3, §4, §5

Avena fatua (AVEFA) = test system: Avena fatua (AVEFA)
Experimental: as §1, §2, §3, §4, §5

Veronica persica (VERPE) = test system: Veronica persica (VERPE)
Experimental: as §1, §2, §3, §4, §5

[9] = test system: Lolium multiflorum (LOLMU)
Experimental: as §1, §2, §3, §4, §5

Viola tricolor (VIOTR) = test system: Viola tricolor (VIOTR)
Experimental: as §1, §2, §3, §4, §5

[10] = test system: Cyperus esculentus (CYPES); conditions: 21 DAT
Experimental: as §1, §2, §3, §4, §5

[11] = 21 DAT, component A 12 g of ai/ha
[12] = 21 DAT, component A 4 g of ai/ha
[13] = 10 DAT, component A 4 g of ai/ha
[14] = 10 DAT, component B 300 g of ai/ha
[15] = 10 DAT, component B 900 g of ai/ha
[16] = 21 DAT, component B 300 g of ai/ha
[17] = 21 DAT, component B 900 g of ai/ha
[18] = 21 DAT, component B 400 g of ai/ha
[19] = 21 DAT, component B 1200 g of ai/ha
[20] = 10 DAT, component B 400 g of ai/ha
[21] = 10 DAT, component B 1200 g of ai/ha

SMILES: COc1nc(OC)nc(C(=O)c2cccc(F)c2N(C)S(=O)(=O)C(F)F)n1 [A-1]
- % activity found [1, 11]: 70%
- % activity found ([2]; component A 4 g of ai/ha): 0%
- % activity found [3, 11]: 60%
- % activity found [4, 12]: 85%
- % activity found [4, 11]: 85%
- % activity found (Oryza sativa (ORYSA); [11]): 10%
- % activity found ([5]; 10 DAT, component A 12 g of ai/ha): 60%
- % activity found [5, 12]: 60%
- % activity found [6, 13]: 40%
- % activity found [6, 12]: 40%
- % activity found (Zea mays (ZEAMX); [13]): 0%
- % activity found (Zea mays (ZEAMX); [11]): 0%
- % activity found (Setaria viridis (SETVI); [13]): 50%
- % activity found [7, 12]: 70%
- % activity found ([8]; component A 4 g of ai/ha): 85%

SMILES: CC(C)(NC(=O)NCc1ccccc1Cl)c1ccccc1 [B1-1, N-[(2-chlorophenyl)methyl]-N′-(1-methyl-1-phenylethyl)urea]
- % activity found (Avena fatua (AVEFA); [14]): 0%
- % activity found (Avena fatua (AVEFA); [15]): 0%
- % activity found [1, 16]: 0%
- % activity found [1, 17]: 0%
- % activity found (Veronica persica (VERPE); [14]): 0%
- % activity found (Veronica persica (VERPE); [15]): 0%
- % activity found (Veronica persica (VERPE); [16]): 0%
- % activity found (Veronica persica (VERPE); [17]): 0%
- % activity found ([2]; component B 900 g of ai/ha): 5%
- % activity found [3, 14]: 20%
- % activity found [3, 16]: 0%
- % activity found [3, 17]: 0%
- % activity found [9, 17]: 0%
- % activity found [4, 14]: 0%
- % activity found [4, 16]: 0%
- % activity found [4, 17]: 0%
- % activity found (Oryza sativa (ORYSA); [14]): 0%
- % activity found [5, 14]: 0%
- % activity found [5, 15]: 0%
- % activity found [5, 16]: 0%
- % activity found [5, 17]: 30%
- % activity found [6, 14]: 0%
- % activity found [6, 15]: 0%
- % activity found [6, 16]: 0%
- % activity found [6, 17]: 0%
- % activity found (Zea mays (ZEAMX); [14]): 0%
- % activity found (Zea mays (ZEAMX); [15]): 0%
- % activity found (Zea mays (ZEAMX); [16]): 5%
- % activity found (Zea mays (ZEAMX); [17]): 0%
- % activity found (Setaria viridis (SETVI); [14]): 0%
- % activity found (Setaria viridis (SETVI); [15]): 0%
- % activity found (Setaria viridis (SETVI); [16]): 0%
- % activity found (Setaria viridis (SETVI); [17]): 0%
- % activity found [7, 16]: 0%
- % activity found [7, 17]: 20%
- % activity found (Viola tricolor (VIOTR); [17]): 10%
- % activity found ([8]; component B 300 g of ai/ha): 0%

SMILES: Cc1ccc(NC(=O)NC(C)(C)c2ccccc2)cc1 [B2-4, N-(4-methylphenyl)-N′-(1-methyl-1-phenylethyl)urea]
- % activity found (Avena fatua (AVEFA); [18]): 0%
- % activity found (Avena fatua (AVEFA); [19]): 0%
- % activity found [1, 20]: 0%
- % activity found [1, 21]: 0%
- % activity found [1, 18]: 0%
- % activity found [1, 19]: 0%
- % activity found (Veronica persica (VERPE); [18]): 0%
- % activity found (Veronica persica (VERPE); [19]): 0%
- % activity found ([2]; component B 400 g of ai/ha): 0%
- % activity found ([2]; component B 1200 g of ai/ha): 0%
- % activity found [3, 20]: 0%
- % activity found [3, 21]: 0%
- % activity found [3, 18]: 0%
- % activity found [3, 19]: 20%
- % activity found [9, 20]: 0%
- % activity found [9, 21]: 0%
- % activity found [9, 18]: 0%
- % activity found [9, 19]: 0%
- % activity found [4, 20]: 0%
- % activity found [4, 21]: 0%
- % activity found [4, 18]: 0%
- % activity found [4, 19]: 0%
- % activity found (Oryza sativa (ORYSA); [19]): 10%
- % activity found [5, 20]: 0%
- % activity found [5, 21]: 0%
- % activity found [5, 18]: 0%
- % activity found [5, 19]: 0%
- % activity found [6, 20]: 0%
- % activity found [6, 18]: 0%
- % activity found [6, 19]: 0%
- % activity found (Zea mays (ZEAMX); [20]): 0%
- % activity found (Zea mays (ZEAMX); [21]): 10%
- % activity found (Setaria viridis (SETVI); [19]): 40%
- % activity found [7, 21]: 0%
- % activity found [7, 18]: 0%
- % activity found [7, 19]: 0%
- % activity found (Viola tricolor (VIOTR); [20]): 0%
- % activity found (Viola tricolor (VIOTR); [21]): 0%
- % activity found (Viola tricolor (VIOTR); [18]): 0%
- % activity found (Viola tricolor (VIOTR); [19]): 0%
- % activity found ([10]; component B 400 g of ai/ha): 0%
- % activity found ([10]; component B 1200 g of ai/ha): 0%
